One test has as its target BRD4-BD2 (Homo sapiens (Human), UniProt O60885). As to the kind of experiment: BRD4 AlphaScreen assay, BRD4-BD2. The settings on record: biotin-labeled tetra-acetylated histone H4 peptide, 75 min, room temperature, read-out: BRD4 BD-2 enzyme IC50. The class given is binding. On the procedure:
(§1) BRD4-BD1 and BRD4-BD2 assays were conducted in white 384-well polystyrene plate in a final volume of 20 μL for BD1 and 40 μL for BD2. Inhibitors were first serially diluted in DMSO and added to the plate wells before the addition of other reaction components. The final concentration of DMSO in the assay was 1.25% (BD1) and 0.83% (BD2). The assays were carried out at room temperature for 75 min. in the assay buffer (50 mM HEPES, pH 7.4, 100 mM NaCl, 0.05% CHAPS, 0.01% BSA), containing 50 nM Biotin-labeled tetra-acetylated histone H4 peptide (H4Ac4), 3.8 nM (BRD4-BD1, BPS Bioscience #31040) or 20 nM (BRD4-BD2, BPS Bioscience #31041). The reaction followed by the addition of 20 μL of assay buffer supplemented with Streptavidin donor beads (PerkinElmer 6760002) and GSH Acceptor beads (PerkinElmer-AL109C) at 4 μg/mL under reduced light. After plate sealing, the plate was incubated in the dark at room temperature for 75 min. before reading on a PHERAstar FS plate reader (BMG Labtech). IC50 determination was performed by fitting the curve of percent control activity versus the log of the inhibitor concentration using the GraphPad Prism 5.0 software.

The target in a further test is BRD4-BD1 (Homo sapiens (Human), UniProt O60885). As to the kind of experiment: BRD4 AlphaScreen assay, BRD4-BD1. It counts as binding. The settings on record: biotin-labeled tetra-acetylated histone H4 peptide, 75 min, room temperature, read-out: BRD4 BD-1 enzyme IC50. On the procedure:
as §1

pIC50: −log10 of the molar value. Counter-ions that a name gives are not always drawn.

Usually pIC50 stands for the IC50 on a negative log10 scale, so that one unit is a factor of ten. With `Cc1cccc(Cn2c(C)cc3c2ccc2nnc(C)n23)c1` [Example 18, 1,7-dimethyl-6-(3-methylbenzyl)-6H-pyrrolo[2,3-e][1,2,4]triazolo[4,3-a]pyridine], the pIC50 on BRD4-BD2 and on BRD4-BD1 was ≥ 7.00 throughout.
With `Cc1ccc(Cn2c(C)cc3c2ccc2nnc(C)n23)cc1` [Example 19, 1,7-dimethyl-6-(4-methylbenzyl)-6H-pyrrolo[2,3-e][1,2,4]triazolo[4,3-a]pyridine], the pIC50 at BRD4-BD2 and at BRD4-BD1 was ≥ 7.00 each time.
As to `Cc1cc2c(ccc3nnc(C)n32)n1Cc1cccc(C#N)c1` [Example 20, 3-[(1,7-dimethyl-6H-pyrrolo[2,3-e][1,2,4]triazolo[4,3-a]pyridine-6-yl)methyl]benzonitrile], the values for the pIC50 at BRD4-BD2 and at BRD4-BD1 were ≥ 7.00 and 6.00 to 7.00, respectively.
For `Cc1cc2c(ccc3nnc(C)n32)n1Cc1ccc2ccccc2n1` [Example 21, 1,7-dimethyl-6-(quinolin-2-ylmethyl)-6H-pyrrolo[2,3-e][1,2,4]triazolo[4,3-a]pyridine], the pIC50 on BRD4-BD2 is ≥ 7.00; at BRD4-BD1, 6.00 to 7.00.
For `COc1cccc(Cn2c(C)cc3c2ccc2nnc(C)n23)c1` [Example 22, 6-(3-methoxybenzyl)-1,7-dimethyl-6H-pyrrolo[2,3-e][1,2,4]triazolo[4,3-a]pyridine], the pIC50 on BRD4-BD2 is ≥ 7.00; at BRD4-BD1, 6.00 to 7.00.
The like results for `Cc1cc2c(ccc3nnc(C)n32)n1Cc1cccc(O)c1` [Example 23, 3-[(1,7-dimethyl-6H-pyrrolo[2,3-e][1,2,4]triazolo[4,3-a]pyridin-6-yl)methyl]phenol] were, in that order, ≥ 7.00 and ≥ 7.00.
The matching figures for `CC(=O)Nc1cccc(Cn2c(C)cc3c2ccc2nnc(C)n23)c1` [Example 25, N-{3-[(1,7-dimethyl-6H-pyrrolo[2,3-e][1,2,4]triazolo[4,3-a]pyridin-6-yl)methyl]phenyl}acetamide Trifluoroacetate Salt]: ≥ 7.00 and 6.00 to 7.00.
Take `Cc1cc2c(ccc3nnc(C)n32)n1Cc1cccc(CO)c1` [Example 26, {3-[(1,7-dimethyl-6H-pyrrolo[2,3-e][1,2,4]triazolo[4,3-a]pyridin-6-yl)methyl]phenyl}methanol Trifluoroacetate Salt]: the pIC50 at BRD4-BD2 and on BRD4-BD1 was ≥ 7.00 throughout.
For `Cc1cc2c(ccc3nnc(C)n32)n1Cc1cccc(CN2CC(O)C2)c1` [Example 27, 1-(3-((1,7-dimethyl-6H-pyrrolo[2,3-e][1,2,4]triazolo[4,3-a]pyridin-6-yl)methyl)benzyl)azetidin-3-ol bis-trifluoroacetate Salt], the pIC50 on BRD4-BD2 and at BRD4-BD1 was ≥ 7.00 each time.
As for `Cc1cc2c(ccc3nnc(C)n32)n1Cc1cccc(CN2CCC2)c1` [Example 28, 6-[3-(azetidin-1-ylmethyl)benzyl]-1,7-dimethyl-6H-pyrrolo[2,3-e][1,2,4]triazolo[4,3-a]pyridine], the pIC50 on BRD4-BD2 and on BRD4-BD1 was ≥ 7.00 each time.
In the case of `Cc1cc2c(ccc3nnc(C)n32)n1Cc1cccc(C(N)=O)c1` [Example 30, 3-((1,7-dimethyl-6H-pyrrolo[2,3-e][1,2,4]triazolo[4,3-a]pyridin-6-yl)methyl)benzamide Trifluoroacetate Salt], the negative-log IC50 (pIC50) on BRD4-BD2 is ≥ 7.00; at BRD4-BD1 it was 6.00 to 7.00.
The like results for `Cc1cc2c(ccc3nnc(C)n32)n1Cc1cccc(C(=O)NO)c1` [Example 31, 3-[(1,7-dimethyl-6H-pyrrolo[2,3-e][1,2,4]triazolo[4,3-a]pyridin-6-yl)methyl]-N-hydroxybenzamide Trifluoroacetate Salt] were, in that order, ≥ 7.00 and 6.00 to 7.00.
The like results for `CNC(=O)c1cccc(Cn2c(C)cc3c2ccc2nnc(C)n23)c1` [Example 32, 3-[(1,7-dimethyl-6H-pyrrolo[2,3-e][1,2,4]triazolo[4,3-a]pyridin-6-yl)methyl]-N-methylbenzamide Trifluoroacetate Salt] were, in that order, ≥ 7.00 and 6.00 to 7.00.
The like results for `CCNC(=O)c1cccc(Cn2c(C)cc3c2ccc2nnc(C)n23)c1` [Example 33, 3-[(1,7-dimethyl-6H-pyrrolo[2,3-e][1,2,4]triazolo[4,3-a]pyridin-6-yl)methyl]-N-ethylbenzamide Trifluoroacetate Salt] were, in that order, ≥ 7.00 and 6.00 to 7.00.
Consider `COc1ccc(Cn2c(C)cc3c2ccc2nnc(C)n23)cc1` [Example 34, 6-(4-methoxybenzyl)-1,7-dimethyl-6H-pyrrolo[2,3-e][1,2,4]triazolo[4,3-a]pyridine], for which the pIC50 on BRD4-BD2 and at BRD4-BD1 was ≥ 7.00 each time.
Regarding `Cc1cc2c(ccc3nnc(C)n32)n1Cc1ccc(O)cc1` [Example 35, 4-[(1,7-dimethyl-6H-pyrrolo[2,3-e][1,2,4]triazolo[4,3-a]pyridin-6-yl)methyl]phenol], the pIC50 at BRD4-BD2 and at BRD4-BD1 was ≥ 7.00 in each case.
For `Cc1cc2c(ccc3nnc(C)n32)n1Cc1cccc(CNCCO)c1` [Example 36, 2-({3-[(1,7-dimethyl-6H-pyrrolo[2,3-e][1,2,4]triazolo[4,3-a]pyridin-6-yl)methyl]benzyl}amino)ethanol], the pIC50 at BRD4-BD2 and on BRD4-BD1 was ≥ 7.00 each time.
With `Cc1cc2c(ccc3nnc(C)n32)n1Cc1cccc(CN(C)CCO)c1` [Example 37, 2-[{3-[(1,7-dimethyl-6H-pyrrolo[2,3-e][1,2,4]triazolo[4,3-a]pyridin-6-yl)methyl]benzyl}(methyl)amino]ethanol], the pIC50 on BRD4-BD2 was ≥ 7.00; at BRD4-BD1, 6.00 to 7.00.
The matching figures for `Cc1cc2c(ccc3nnc(C)n32)n1Cc1cccc(CN2CCOCC2)c1` [Example 38, 1,7-dimethyl-6-[3-(morpholin-4-ylmethyl)benzyl]-6H-pyrrolo[2,3-e][1,2,4]triazolo[4,3-a]pyridine]: ≥ 7.00 and 6.00 to 7.00.
For the molecule `Cc1cc2c(ccc3nnc(C)n32)n1Cc1cccc(CN[C@H]2C[C@H](O)C2)c1` [Example 39, (1r,3r)-3-((3-((1,7-dimethyl-6H-pyrrolo[2,3-e][1,2,4]triazolo[4,3-a]pyridin-6-yl)methyl)benzyl)amino)cyclobutanol], the pIC50 is ≥ 7.00 on BRD4-BD2 and 6.00 to 7.00 at BRD4-BD1.
The matching figures for `Cc1cc2c(ccc3nnc(C)n32)n1Cc1cccc(CN(C)C)c1` [Example 40, 1-{3-[(1,7-dimethyl-6H-pyrrolo[2,3-e][1,2,4]triazolo[4,3-a]pyridin-6-yl)methyl]phenyl}-N,N-dimethylmethanamine]: ≥ 7.00 and ≥ 7.00.
The matching figures for `CNCc1cccc(Cn2c(C)cc3c2ccc2nnc(C)n23)c1` [Example 41, 1-{3-[(1,7-dimethyl-6H-pyrrolo[2,3-e][1,2,4]triazolo[4,3-a]pyridin-6-yl)methyl]phenyl}-N-methylmethanamine]: ≥ 7.00 and ≥ 7.00.
The like results for `CCNCc1cccc(Cn2c(C)cc3c2ccc2nnc(C)n23)c1` [Example 42, N-{3-[(1,7-dimethyl-6H-pyrrolo[2,3-e][1,2,4]triazolo[4,3-a]pyridin-6-yl)methyl]benzyl}ethanamine] were, in that order, ≥ 7.00 and ≥ 7.00.

Source of the values: US9777003B2, “Tricyclic heterocycles as bet protein inhibitors” (Incyte Corporation, priority 2013, dated 2017).
